# Experimental data taken from patent publication US7101890B2, “Benzazepine derivatives, drugs containing these and use of the same for producing drugs” (priority 1996, dated 2006).
# System: not given
# Assay: not given
# Details: not given
row,melting point [°C],Structure (SMILES)
1,170 to 173,O=[N+]([O-])c1ccc(N2CC3CC2CN3Cc2ccccc2)cc1 (stereo not shown)
2,130 to 140,Cc1ccc(N2CC3CC2CN3)cc1 (stereo not shown)
3,188 to 189,COc1cc(Br)c2c3c1OC1C[C@@H](O)C=CC31CCN(C)C2=O (mixture of isomers)
4,120 to 130,c1ccc(N2CC3CC2CN3)cc1 (stereo not shown)
5,107 to 108,O=[N+]([O-])c1ccccc1N1CC2CC1CN2Cc1ccccc1 (stereo not shown)
6,120 to 130,Fc1ccc(N2CC3CC2CN3)cc1 (stereo not shown)
7,120 to 130,Clc1ccc(N2CC3CC2CN3)cc1 (stereo not shown)

# Target: acetylcholine esterase (Homo sapiens, UniProt P06276)
# Sequence (P06276 29-602): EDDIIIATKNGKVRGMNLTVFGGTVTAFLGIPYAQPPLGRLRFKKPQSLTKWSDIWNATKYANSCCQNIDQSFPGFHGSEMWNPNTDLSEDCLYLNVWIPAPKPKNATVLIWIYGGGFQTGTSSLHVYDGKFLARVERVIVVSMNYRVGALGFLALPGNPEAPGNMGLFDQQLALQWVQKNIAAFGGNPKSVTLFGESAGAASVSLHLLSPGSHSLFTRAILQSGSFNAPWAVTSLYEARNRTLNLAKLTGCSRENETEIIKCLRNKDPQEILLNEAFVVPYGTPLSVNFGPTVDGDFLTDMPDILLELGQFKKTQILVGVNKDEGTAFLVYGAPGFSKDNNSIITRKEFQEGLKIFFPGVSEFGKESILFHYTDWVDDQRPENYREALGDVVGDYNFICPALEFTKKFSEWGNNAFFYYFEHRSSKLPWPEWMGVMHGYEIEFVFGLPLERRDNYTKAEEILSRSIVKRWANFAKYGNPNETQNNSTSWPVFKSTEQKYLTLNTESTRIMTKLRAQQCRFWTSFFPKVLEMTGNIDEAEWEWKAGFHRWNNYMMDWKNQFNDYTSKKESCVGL
# Assay: Inhibition of acetylcholine esterase, modified method of Ellmann, human serum
# Format: biochemical
# Details: ACHE inhibition; human serum from a pool of 10 test subjects; 37° C., pH 7.8; compounds of general formula (I)
row,Structure (SMILES),IC50 in μMol
1,"COc1ccc2c3c1O[C@H]1CC(=NO)C=C[C@@]31CCN(C)C2 [Substance 76, narwedine Oxime]",insol.
2,"COc1ccc2c3c1OC1CC(O)C=CC31CC[N+](C)([O-])C2 (single isomer, unassigned; (-)) [Substance 98, (−)-Galanthamine-N-oxide]",insol.
3,COC(=O)CCC(=O)N1CCC23C=CC(O)CC2Oc2c(OC)cc(Br)c(c23)C1 (racemic) [Substance 61],insol.
4,COc1ccc2c3c1OC1CC(=NN(C)C)C=CC31CCN(C)C2 (racemic) [Substance 82],insol.
5,C#CCN1CCC23C=CC(O)CC2Oc2c(OC)cc(Br)c(c23)C1 (racemic) [Substance 50],insol.
6,"COc1ccc2c3c1OC1CC(=NO)C=CC31CCN(C)C2 (single isomer, unassigned) [Substance 77, narwedine Oxime]",insol.
7,COC(=O)N1CCC23C=CC(O)CC2Oc2c(OC)cc(Br)c(c23)C1 (racemic) [Substance 62],insol.
8,CCCCCCN1CCC23C=CC(O)CC2Oc2c(OC)cc(Br)c(c23)C1 (racemic) [Substance 49],insol.
9,COc1ccc2c3c1OC1CC(=NNC(N)=O)C=CC31CCN(C)C2 (racemic) [Substance 87],insol.
10,COc1cc(Br)c2c3c1OC1CC(O)C=CC31CCN(CC#N)C2 (racemic) [Substance 52],insol.

# Same assay, conditions: ACHE inhibition; human serum from a pool of 10 test subjects; 37° C., pH 7.8; compounds of general formula (I); read-out: IC50 in μMol
row,Structure (SMILES),IC50 [µM]
1,"CCCCNC(=S)OC1C=CC23CCN(C)Cc4ccc(OC)c(c42)OC3C1 (single isomer, unassigned; (+)) [Substance 24, (+)-Galanthamin-n-butylthiocarbamate]",85

# Same assay, conditions: ACHE inhibition; human serum pool; compounds of formula (II); read-out: IC50
row,Structure (SMILES),IC50 [µM]
1,"COc1ccc2c(c1O)C13C=C[C@@H](O)CC1N(CC3)C2 (stereo partly shown) [Substance 115, 35-4,4a-dihydro-9-methoxy-10-hydroxy (3H,6H) (5,10b) ethanophenanthridine-3-ol]",> 150
